Drawing on the supplement of paper PMC10307832, this text covers relative viability for seven cell lines.

Test in all cases: relative viability (nuclei count vs DMSO), 5 days (fraction); higher = more cells survive
Compound in experiment [1]: CC(C)C[C@H](NC(=O)[C@H](Cc1ccccc1)NC(=O)c1cnccn1)B(O)O [Bortezomib] + NC(=O)Nc1cc(-c2cccc(F)c2)sc1C(=O)N[C@H]1CCCNC1 [AZD7762] (partner 0.2 µM)
The method in brief:
(§1)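 Values are medians from duplicate plates. Each reflects relative viability, defined as the nuclei count of treated wells over that of vehicle wells. Lung cancer cell lines in 1536-well plates were pin-tool dosed one day after seeding with one drug alone or with a fixed anchor-drug dose plus five library-drug doses (not always all listed) in √10 steps, then fixed, stained and imaged at 4× after 5 days.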

Compound in experiment [2]: CC1=CC(=NN1)NC2=CC(=NC(=N2)/C=C/C3=CC=CC=C3)N4CCN(CC4)C + CC1(C)CCC(c2ccc(Cl)cc2)=C(CN2CCN(c3ccc(C(=O)NS(=O)(=O)c4ccc(N[C@H](CCN5CCOCC5)CSc5ccccc5)c(S(=O)(=O)C(F)(F)F)c4)cc3)CC2)C1 [Navitoclax] (partner 0.5 µM)
An outline of the steps:
as §1

Compound in experiment [3]: CC1=CC(=NN1)NC2=CC(=NC(=N2)/C=C/C3=CC=CC=C3)N4CCN(CC4)C + COc1cc2c(Oc3ccc(NC(=O)C4(C(=O)Nc5ccc(F)cc5)CC4)cc3F)ccnc2cc1OCCCN1CCOCC1 [Foretinib] (partner 0.25 µM)
The method in brief: as §1

Compound in experiment [4]: COC1=CC(c2cc3ccccc3[nH]2)=N/C1=C\c1[nH]c(C)cc1C [Obatoclax] + Nc1ncn([C@H]2C[C@H](O)[C@@H](CO)O2)c(=O)n1 [Decitabine] (partner 2 µM)
An outline of the steps: as §1

With NCI-H23, the relative viability in experiment [1] (first compound 0.0002 µM) was found to be 0.17; in experiment [1] (first compound 0.002 µM) it was 0.308; in experiment [1] (first compound 0.006325 µM) it was 0.25; in experiment [1] (first compound 0.02 µM) it was 0.0879; in experiment [2] (first compound 0.08 µM) it was 0.79; in experiment [2] (first compound 0.253 µM), 0.909. The relative viability in experiment [2] (first compound 0.8 µM) was found to be 0.867; in experiment [2] (first compound 2.53 µM), 0.364; in experiment [2] (first compound 8 µM), 0.15; in experiment [3] (first compound 0.08 µM), 0.699; in experiment [3] (first compound 0.253 µM), 0.987; in experiment [3] (first compound 0.8 µM), 0.712. The relative viability in experiment [3] (first compound 2.53 µM) was 0.256; in experiment [3] (first compound 8 µM) it was 0.147; in experiment [4] (first compound 0.01 µM) it was 0.328; in experiment [4] (first compound 0.03162 µM) it was 0.272; in experiment [4] (first compound 0.1 µM), 0.369; in experiment [4] (first compound 0.3162 µM), 0.286. For the same cell line, the relative viability in experiment [4] (first compound 1 µM) came out at 0.349.

Regarding NCI-H322M, the relative viability in experiment [1] (first compound 0.0002 µM) turned out to be 0.539; in experiment [1] (first compound 0.000632 µM), 0.636; in experiment [1] (first compound 0.002 µM) it was 0.654; in experiment [1] (first compound 0.006325 µM) it was 0.385; in experiment [1] (first compound 0.02 µM), 0.393; in experiment [2] (first compound 0.08 µM), 1.18. Also, the relative viability in experiment [2] (first compound 0.253 µM) stood at 1.41; in experiment [2] (first compound 0.8 µM), 1.09; in experiment [2] (first compound 2.53 µM), 0.802; in experiment [2] (first compound 8 µM), 0.318; in experiment [3] (first compound 0.08 µM) it was 0.947; in experiment [3] (first compound 0.253 µM) it was 1.03. Further, the relative viability is 0.934 in experiment [3] (first compound 0.8 µM); 0.363 in experiment [3] (first compound 2.53 µM); 0.239 in experiment [3] (first compound 8 µM); 0.701 in experiment [4] (first compound 0.01 µM); 0.687 in experiment [4] (first compound 0.03162 µM); 0.856 in experiment [4] (first compound 0.1 µM). Besides, the results for the relative viability in experiment [4] (first compound 0.3162 µM) and in experiment [4] (first compound 1 µM) were 0.818 and 0.662, respectively.

As for NCI-H441, the relative viability worked out at 1.04 in experiment [1] (first compound 0.0002 µM); 1.09 in experiment [1] (first compound 0.000632 µM); 0.754 in experiment [1] (first compound 0.002 µM); 0.117 in experiment [1] (first compound 0.006325 µM); 0.134 in experiment [1] (first compound 0.02 µM); 0.704 in experiment [2] (first compound 0.08 µM). Moreover, the relative viability was determined as 0.503 in experiment [2] (first compound 0.253 µM); 0.302 in experiment [2] (first compound 0.8 µM); 0.187 in experiment [2] (first compound 2.53 µM); 0.122 in experiment [2] (first compound 8 µM); 1.16 in experiment [3] (first compound 0.08 µM); 0.649 in experiment [3] (first compound 0.253 µM). The relative viability amounted to 1.18 in experiment [3] (first compound 0.8 µM); 0.384 in experiment [3] (first compound 2.53 µM); 0.177 in experiment [3] (first compound 8 µM); 0.213 in experiment [4] (first compound 0.01 µM); 0.272 in experiment [4] (first compound 0.03162 µM); 0.287 in experiment [4] (first compound 0.1 µM). In addition, the relative viability in experiment [4] (first compound 0.3162 µM) turned out to be 0.2; in experiment [4] (first compound 1 µM) it was 0.194.

For NCI-H460, the relative viability came out at 0.55 in experiment [1] (first compound 0.0002 µM); 0.706 in experiment [1] (first compound 0.000632 µM); 0.724 in experiment [1] (first compound 0.002 µM); 0.672 in experiment [1] (first compound 0.006325 µM); 0.044 in experiment [1] (first compound 0.02 µM); 1.07 in experiment [2] (first compound 0.08 µM). The relative viability in experiment [2] (first compound 0.253 µM) was found to be 1.58; in experiment [2] (first compound 0.8 µM), 0.952; in experiment [2] (first compound 2.53 µM) it was 0.0095; in experiment [2] (first compound 8 µM) it was 0.0091; in experiment [3] (first compound 0.08 µM), 1; in experiment [3] (first compound 0.253 µM), 1.1. Moreover, the relative viability worked out at 1.04 in experiment [3] (first compound 0.8 µM); 0.477 in experiment [3] (first compound 2.53 µM); 0.0228 in experiment [3] (first compound 8 µM); 0.521 in experiment [4] (first compound 0.01 µM); 0.385 in experiment [4] (first compound 0.03162 µM); 0.522 in experiment [4] (first compound 0.1 µM). Also, the figures for the relative viability in experiment [4] (first compound 0.3162 µM) and in experiment [4] (first compound 1 µM) were 0.133 and 0.0944, respectively.

Take NCI-H596: the relative viability in experiment [1] (first compound 0.0002 µM) came to 0.983; in experiment [1] (first compound 0.000632 µM), 1.22; in experiment [1] (first compound 0.002 µM) it was 1.15; in experiment [1] (first compound 0.006325 µM), 0.634; in experiment [1] (first compound 0.02 µM), 0.205; in experiment [2] (first compound 0.08 µM) it was 0.91. The relative viability in experiment [2] (first compound 0.253 µM) was 1.04; in experiment [2] (first compound 0.8 µM) it was 0.705; in experiment [2] (first compound 2.53 µM), 0.489; in experiment [2] (first compound 8 µM), 0.27; in experiment [3] (first compound 0.08 µM) it was 0.78; in experiment [3] (first compound 0.253 µM), 0.937. The relative viability was found to be 0.633 in experiment [3] (first compound 0.8 µM); 0.654 in experiment [3] (first compound 2.53 µM); 0.165 in experiment [3] (first compound 8 µM); 0.953 in experiment [4] (first compound 0.01 µM); 0.986 in experiment [4] (first compound 0.03162 µM); 1.04 in experiment [4] (first compound 0.1 µM). Also, the relative viability is 0.848 in experiment [4] (first compound 0.3162 µM) and 0.79 in experiment [4] (first compound 1 µM).

Turning to NCI-H647, the relative viability in experiment [1] (first compound 0.0002 µM) stood at 0.405; in experiment [1] (first compound 0.000632 µM), 0.447; in experiment [1] (first compound 0.002 µM), 0.419; in experiment [1] (first compound 0.006325 µM), 0.0227; in experiment [1] (first compound 0.02 µM), 0.0188; in experiment [2] (first compound 0.08 µM), 1.05. For the same cell line, the relative viability worked out at 1.38 in experiment [2] (first compound 0.253 µM); 1.07 in experiment [2] (first compound 0.8 µM); 0.0912 in experiment [2] (first compound 2.53 µM); 0.0329 in experiment [2] (first compound 8 µM); 1.14 in experiment [3] (first compound 0.08 µM); 1.23 in experiment [3] (first compound 0.253 µM). Also, the relative viability in experiment [3] (first compound 0.8 µM) was found to be 1.27; in experiment [3] (first compound 2.53 µM) it was 0.8; in experiment [3] (first compound 8 µM) it was 0.104; in experiment [4] (first compound 0.01 µM), 0.422; in experiment [4] (first compound 0.03162 µM) it was 0.27; in experiment [4] (first compound 0.1 µM), 0.438. Further, the relative viability in experiment [4] (first compound 0.3162 µM) was found to be 0.3; in experiment [4] (first compound 1 µM) it was 0.112.

For NCI-H727, the relative viability amounted to 0.631 in experiment [1] (first compound 0.0002 µM); 0.611 in experiment [1] (first compound 0.000632 µM); 0.688 in experiment [1] (first compound 0.002 µM); 0.698 in experiment [1] (first compound 0.006325 µM); 0.595 in experiment [1] (first compound 0.02 µM); 0.423 in experiment [2] (first compound 0.08 µM). The relative viability in experiment [2] (first compound 0.253 µM) was 0.483; in experiment [2] (first compound 0.8 µM) it was 0.378; in experiment [2] (first compound 2.53 µM), 0.286; in experiment [2] (first compound 8 µM), 0.0872; in experiment [3] (first compound 0.08 µM) it was 0.823; in experiment [3] (first compound 0.253 µM), 0.916. Further, the relative viability worked out at 0.679 in experiment [3] (first compound 0.8 µM); 0.512 in experiment [3] (first compound 2.53 µM); 0.272 in experiment [3] (first compound 8 µM); 0.916 in experiment [4] (first compound 0.01 µM); 0.731 in experiment [4] (first compound 0.03162 µM); 0.798 in experiment [4] (first compound 0.1 µM). The relative viability was 0.591 in experiment [4] (first compound 0.3162 µM) and 0.872 in experiment [4] (first compound 1 µM).
